PMC9403976, “Elucidating the path to Plasmodium prolyl-tRNA synthetase inhibitors that overcome halofuginone resistance” (Nature Communications, 2022)
“And” between values parts separate entries of the source, which are not always exact repeats. Identical values can stand only once. Like-named read-outs stand apart in the source and are kept apart here.

What was measured:
P. falciparum Dd2-2D4 = experiment: P. falciparum asexual blood stage (ABS) growth assay, SYBR Green, 72 h, wild-type parasites; assay type: cell-based, Plasmodium falciparum; settings: Plasmodium falciparum, DD2; SI Fig 16b; values on -log scale; read-out: ABS - Dd2-2D4 (converted)
PfcProRS = molecular target: T1, PfcProRS (Plasmodium falciparum, UniProt Q8I5R7); assay type: binding; settings: single replicates
T1 construct: made in house; host or cells: E. coli SoluBL-21
T1 sequence (Q8I5R7 249-746): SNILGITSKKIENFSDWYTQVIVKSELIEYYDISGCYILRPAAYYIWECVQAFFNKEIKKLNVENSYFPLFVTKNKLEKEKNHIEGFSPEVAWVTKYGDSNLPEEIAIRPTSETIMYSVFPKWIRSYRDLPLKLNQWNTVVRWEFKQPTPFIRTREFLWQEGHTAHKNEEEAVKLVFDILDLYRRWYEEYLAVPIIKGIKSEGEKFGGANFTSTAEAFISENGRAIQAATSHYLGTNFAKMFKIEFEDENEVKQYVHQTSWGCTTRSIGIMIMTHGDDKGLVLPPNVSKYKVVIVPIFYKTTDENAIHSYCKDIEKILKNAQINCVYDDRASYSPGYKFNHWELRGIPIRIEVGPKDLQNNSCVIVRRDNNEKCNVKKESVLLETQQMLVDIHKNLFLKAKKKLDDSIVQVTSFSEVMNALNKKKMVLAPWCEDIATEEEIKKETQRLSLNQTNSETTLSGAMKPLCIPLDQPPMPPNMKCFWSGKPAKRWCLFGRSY

HsProRS = HsProRS (Homo sapiens, UniProt P07814); experiment: TR-FRET ligand displacement assay with tracer MAT379 (CoraFluor-1-Halo and anti-His6 antibody formats); assay type: binding; set-up: made in house; host or cells: E. coli SoluBL-21; settings: for TR-FRET dose-response, normalized signal (SI Fig 11): individual replicates
Sequence of HsProRS (P07814 996-1512): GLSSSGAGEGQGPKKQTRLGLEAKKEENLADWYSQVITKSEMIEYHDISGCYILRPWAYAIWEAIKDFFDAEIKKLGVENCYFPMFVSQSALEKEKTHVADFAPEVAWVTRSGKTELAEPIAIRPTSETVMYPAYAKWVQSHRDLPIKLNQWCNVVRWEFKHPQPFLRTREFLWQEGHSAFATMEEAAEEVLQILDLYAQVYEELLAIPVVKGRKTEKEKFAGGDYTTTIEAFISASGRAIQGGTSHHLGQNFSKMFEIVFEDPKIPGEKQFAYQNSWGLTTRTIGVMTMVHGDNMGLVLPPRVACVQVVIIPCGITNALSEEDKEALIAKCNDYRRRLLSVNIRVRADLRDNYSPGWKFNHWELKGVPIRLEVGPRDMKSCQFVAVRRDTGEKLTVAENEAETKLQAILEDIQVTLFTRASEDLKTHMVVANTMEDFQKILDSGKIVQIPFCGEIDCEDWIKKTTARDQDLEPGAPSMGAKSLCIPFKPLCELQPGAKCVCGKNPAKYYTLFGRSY

SMILES: CC(C)(C)OC(=O)NC1(C(=O)Nc2nccnc2C(=O)NC2Cc3ccccc3C2)CCCCC1 [compound 16]
- EC50 (P. falciparum Dd2-2D4): 6.11 µM
- dose-response signal (normalized), SI Fig 8 (PfcProRS; Log[inhibitor] (M) -5.000): 6.20E-01 and 5.27E-01 and 6.63E-01
- dose-response signal (normalized), SI Fig 8 (PfcProRS; Log[inhibitor] (M) -5.301): 7.82E-01 and 8.01E-01 and 7.78E-01
- dose-response signal (normalized), SI Fig 8 (PfcProRS; Log[inhibitor] (M) -5.601): 9.11E-01 and 9.60E-01 and 1.00E+00
- dose-response signal (normalized), SI Fig 8 (PfcProRS; Log[inhibitor] (M) -5.904): 1.10E+00 and 9.14E-01 and 1.01E+00
- dose-response signal (normalized), SI Fig 8 (PfcProRS; Log[inhibitor] (M) -6.208): 9.01E-01 and 9.36E-01 and 9.23E-01
- dose-response signal (normalized), SI Fig 8 (PfcProRS; Log[inhibitor] (M) -6.509): 1.06E+00 and 9.75E-01 and 1.11E+00
- dose-response signal (normalized), SI Fig 8 (PfcProRS; Log[inhibitor] (M) -6.796): 9.95E-01 (2×) and 1.12E+00
- dose-response signal (normalized), SI Fig 8 (PfcProRS; Log[inhibitor] (M) -7.108): 9.41E-01 and 8.82E-01 and 1.04E+00
- dose-response signal (normalized), SI Fig 8 (PfcProRS; Log[inhibitor] (M) -7.409): 1.04E+00 and 1.02E+00 and 9.01E-01
- dose-response signal (normalized), SI Fig 8 (PfcProRS; Log[inhibitor] (M) -7.710): 9.65E-01 and 9.90E-01 and 1.00E+00
- dose-response signal (normalized), SI Fig 8 (PfcProRS; Log[inhibitor] (M) -8.000): 9.92E-01 and 8.87E-01 and 9.29E-01
- dose-response signal (normalized), SI Fig 8 (PfcProRS; Log[inhibitor] (M) -8.301): 9.41E-01 and 9.84E-01 and 9.99E-01
- dose-response signal (normalized), SI Fig 8 (PfcProRS; Log[inhibitor] (M) -8.602): 9.39E-01 and 9.44E-01 and 1.00E+00
- dose-response signal (normalized), SI Fig 8 (PfcProRS; Log[inhibitor] (M) -9.000): 9.16E-01 and 9.94E-01 and 9.86E-01
- dose-response signal (normalized), SI Fig 8 (PfcProRS; Log[inhibitor] (M) -9.301): 9.11E-01 and 9.01E-01 and 9.58E-01
- IC50 (HsProRS): > 10 µM
- HsProRS % signal at 10 μM, + 100 μM proline (HsProRS; + 100 μM proline, 10 μM): 70.7%
- normalized TR-FRET ligand displacement signal, dose-response replicates (SI Fig 6) (HsProRS; Log[inhibitor] (M) -5.000): 4.34E-01 and 4.81E-01 and 6.11E-01
- TR-FRET dose-response, normalized signal (SI Fig 11) (HsProRS; Log[inhibitor] (M) -5.000): 8.52E-01 and 8.40E-01 and 8.43E-01
- normalized TR-FRET ligand displacement signal, dose-response replicates (SI Fig 6) (HsProRS; Log[inhibitor] (M) -5.301): 6.93E-01 and 7.38E-01 and 8.04E-01
- TR-FRET dose-response, normalized signal (SI Fig 11) (HsProRS; Log[inhibitor] (M) -5.301): 9.27E-01 and 9.08E-01 and 9.74E-01
- normalized TR-FRET ligand displacement signal, dose-response replicates (SI Fig 6) (HsProRS; Log[inhibitor] (M) -5.601): 9.79E-01 and 9.61E-01 and 8.02E-01
- TR-FRET dose-response, normalized signal (SI Fig 11) (HsProRS; Log[inhibitor] (M) -5.601): 9.47E-01 and 9.15E-01 and 9.10E-01
- normalized TR-FRET ligand displacement signal, dose-response replicates (SI Fig 6) (HsProRS; Log[inhibitor] (M) -5.904): 1.00E+00 and 9.00E-01 and 9.53E-01
- TR-FRET dose-response, normalized signal (SI Fig 11) (HsProRS; Log[inhibitor] (M) -5.904): 9.81E-01 and 1.01E+00 and 9.64E-01
- normalized TR-FRET ligand displacement signal, dose-response replicates (SI Fig 6) (HsProRS; Log[inhibitor] (M) -6.208): 1.01E+00 and 9.68E-01 and 8.67E-01
- TR-FRET dose-response, normalized signal (SI Fig 11) (HsProRS; Log[inhibitor] (M) -6.208): 9.74E-01 and 9.73E-01 and 9.58E-01
- normalized TR-FRET ligand displacement signal, dose-response replicates (SI Fig 6) (HsProRS; Log[inhibitor] (M) -6.509): 8.93E-01 and 9.31E-01 and 9.89E-01
- TR-FRET dose-response, normalized signal (SI Fig 11) (HsProRS; Log[inhibitor] (M) -6.509): 9.98E-01 and 9.53E-01 and 9.97E-01
- normalized TR-FRET ligand displacement signal, dose-response replicates (SI Fig 6) (HsProRS; Log[inhibitor] (M) -6.796): 9.58E-01 and 1.05E+00 and 1.01E+00
- TR-FRET dose-response, normalized signal (SI Fig 11) (HsProRS; Log[inhibitor] (M) -6.796): 9.61E-01 and 9.66E-01 and 9.67E-01
- normalized TR-FRET ligand displacement signal, dose-response replicates (SI Fig 6) (HsProRS; Log[inhibitor] (M) -7.108): 9.61E-01 and 9.43E-01 and 9.87E-01
- TR-FRET dose-response, normalized signal (SI Fig 11) (HsProRS; Log[inhibitor] (M) -7.108): 9.51E-01 and 9.57E-01 and 9.59E-01
- normalized TR-FRET ligand displacement signal, dose-response replicates (SI Fig 6) (HsProRS; Log[inhibitor] (M) -7.409): 1.08E+00 and 1.02E+00 (2×)
- TR-FRET dose-response, normalized signal (SI Fig 11) (HsProRS; Log[inhibitor] (M) -7.409): 9.88E-01 and 8.98E-01 and 1.00E+00
- normalized TR-FRET ligand displacement signal, dose-response replicates (SI Fig 6) (HsProRS; Log[inhibitor] (M) -7.710): 9.30E-01 and 9.73E-01 and 8.91E-01
- TR-FRET dose-response, normalized signal (SI Fig 11) (HsProRS; Log[inhibitor] (M) -7.710): 9.77E-01 and 9.48E-01 and 9.54E-01
- normalized TR-FRET ligand displacement signal, dose-response replicates (SI Fig 6) (HsProRS; Log[inhibitor] (M) -8.000): 9.09E-01 and 9.96E-01 and 8.17E-01
- TR-FRET dose-response, normalized signal (SI Fig 11) (HsProRS; Log[inhibitor] (M) -8.000): 9.83E-01 and 9.29E-01 and 9.65E-01
- normalized TR-FRET ligand displacement signal, dose-response replicates (SI Fig 6) (HsProRS; Log[inhibitor] (M) -8.301): 9.56E-01 and 8.69E-01 and 9.45E-01
- TR-FRET dose-response, normalized signal (SI Fig 11) (HsProRS; Log[inhibitor] (M) -8.301): 1.00E+00 and 1.01E+00 and 9.30E-01
- normalized TR-FRET ligand displacement signal, dose-response replicates (SI Fig 6) (HsProRS; Log[inhibitor] (M) -8.602): 9.44E-01 and 9.32E-01 and 1.00E+00
- TR-FRET dose-response, normalized signal (SI Fig 11) (HsProRS; Log[inhibitor] (M) -8.602): 9.93E-01 and 9.41E-01 and 1.01E+00
- normalized TR-FRET ligand displacement signal, dose-response replicates (SI Fig 6) (HsProRS; Log[inhibitor] (M) -9.000): 8.94E-01 and 8.85E-01 and 9.67E-01
- TR-FRET dose-response, normalized signal (SI Fig 11) (HsProRS; Log[inhibitor] (M) -9.000): 9.74E-01 and 9.63E-01 and 9.89E-01
- normalized TR-FRET ligand displacement signal, dose-response replicates (SI Fig 6) (HsProRS; Log[inhibitor] (M) -9.301): 1.12E+00 and 1.00E+00 and 9.62E-01
- TR-FRET dose-response, normalized signal (SI Fig 11) (HsProRS; Log[inhibitor] (M) -9.301): 9.82E-01 and 9.33E-01 and 9.53E-01
- HsProRS % signal at 10 μM (HsProRS; no added proline/ATP (-), 10 μM): 84.5%
- IC50 (HsProRS; read-out: HsProRS IC50 + 100 μM proline, + 100 μM proline): > 10 µM
